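Values below derive from 48-hour exposures of cells grown in 96-well plates, with endpoints linearly interpolated between the two concentrations bracketing the appropriate inhibition level. The concentration for 50% growth inhibition is given as GI50.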 Active and inactive are the calls of the source. Rule as the data show it: active = GI50 up to about 1.1 µM and inactive = higher.
Columns and labels:
Experiment in all cases: inhibition of tumour cell growth, NCI panel, 48 h
[1] = tested on: CCRF-CEM
[2] = tested on: SK-MEL-2
[3] = tested on: NCI-H522
[4] = tested on: RPMI-8226
[5] = tested on: OVCAR-5
[6] = tested on: K562
[7] = tested on: SN12C
[8] = tested on: ACHN
[9] = tested on: DU-145
[10] = tested on: M14
[11] = tested on: UACC-62
[12] = tested on: HCT-116
[13] = tested on: HT-29
[14] = tested on: HCC 2998
[15] = tested on: OVCAR-4
[16] = tested on: NCI-H226
[17] = tested on: A549
[18] = tested on: NCI-H460
[19] = tested on: SNB-75
[20] = tested on: HOP-62
[21] = tested on: SK-MEL-28
[22] = tested on: U-251
[23] = tested on: NCI-H23
[24] = tested on: SK-MEL-5
[25] = tested on: SNB-19
[26] = tested on: EKVX
[27] = tested on: MOLT-4
[28] = tested on: SW-620
[29] = tested on: OVCAR-3
[30] = tested on: MCF7
[31] = tested on: UO-31
[32] = tested on: UACC-257
[33] = tested on: MDA-N
[34] = tested on: RXF 393
[35] = tested on: SK-OV-3
[36] = tested on: SF-295
[37] = tested on: MDA-MB-435
[38] = tested on: IGROV-1
[39] = tested on: PC-3
[40] = tested on: Malme-3M
[41] = tested on: BT-549
[42] = tested on: TK-10
[43] = tested on: KM12
[44] = tested on: T47D
[45] = tested on: OVCAR-8
[46] = tested on: HCT-15
[47] = tested on: MDA-MB-231
[48] = tested on: NCI/ADR-RES
[49] = tested on: COLO 205
[50] = tested on: CAKI-1
[51] = tested on: Hs-578T
[52] = tested on: SF-268
[53] = tested on: 786-0
[54] = tested on: HOP-92
[55] = tested on: SF-539
[56] = tested on: LOX IMVI
[57] = tested on: HL-60
[58] = tested on: A498

CN1C(=O)C(/C=N/NC(=O)c2cccnc2)C(N)N(C)C1=O (stereo unspecified)
GI50 [1]: > 100 µM (inactive) | GI50 [2]: 35.3 µM (inactive) | GI50 [3]: > 100 µM (inactive) | GI50 [4]: > 100 µM (inactive) | GI50 [5]: > 100 µM (inactive) | GI50 [6]: > 100 µM (inactive) | GI50 [7]: > 100 µM (inactive) | GI50 [8]: > 100 µM (inactive) | GI50 [9]: > 100 µM (inactive) | GI50 [10]: > 100 µM (inactive) | GI50 [11]: > 100 µM (inactive) | GI50 [12]: > 100 µM (inactive) | GI50 [13]: > 100 µM (inactive) | GI50 [14]: > 100 µM (inactive) | GI50 [15]: > 100 µM (inactive) | GI50 [16]: > 100 µM (inactive) | GI50 [17]: > 100 µM (inactive) | GI50 [18]: > 100 µM (inactive) | GI50 [19]: > 100 µM (inactive) | GI50 [20]: > 100 µM (inactive) | GI50 [21]: > 100 µM (inactive) | GI50 [22]: > 100 µM (inactive) | GI50 [23]: > 100 µM (inactive) | GI50 [24]: > 100 µM (inactive) | GI50 [25]: > 100 µM (inactive) | GI50 [26]: > 100 µM (inactive) | GI50 [27]: > 100 µM (inactive) | GI50 [28]: > 100 µM (inactive) | GI50 [29]: > 100 µM (inactive) | GI50 [30]: > 100 µM (inactive) | GI50 [31]: > 100 µM (inactive) | GI50 [32]: > 100 µM (inactive) | GI50 [33]: > 100 µM (inactive) | GI50 [34]: > 100 µM (inactive) | GI50 [35]: > 100 µM (inactive) | GI50 [36]: > 100 µM (inactive) | GI50 [37]: > 100 µM (inactive) | GI50 [38]: > 100 µM (inactive) | GI50 [39]: > 100 µM (inactive) | GI50 [40]: > 100 µM (inactive) | GI50 [41]: > 100 µM (inactive) | GI50 [42]: > 100 µM (inactive) | GI50 [43]: > 100 µM (inactive) | GI50 [44]: > 100 µM (inactive) | GI50 [45]: > 100 µM (inactive) | GI50 [46]: > 100 µM | GI50 [47]: > 100 µM (inactive) | GI50 [48]: > 100 µM (inactive) | GI50 [49]: > 100 µM (inactive) | GI50 [50]: > 100 µM (inactive) | GI50 [51]: > 100 µM (inactive) | GI50 [52]: > 100 µM (inactive) | GI50 [53]: > 100 µM (inactive)

CCCCCCCCCCCCCCCC(=O)ON1C(=S)NC(C)(c2ccccc2)C1=S (stereo unspecified)
GI50 [1]: 36.4 µM (inactive) | GI50 [2]: > 100 µM (inactive) | GI50 [4]: > 100 µM (inactive) | GI50 [5]: > 100 µM (inactive) | GI50 [6]: 38.2 µM (inactive) | GI50 [7]: > 100 µM (inactive) | GI50 [8]: > 100 µM (inactive) | GI50 [9]: > 100 µM (inactive) | GI50 [10]: 30.3 µM (inactive) | GI50 [11]: > 100 µM (inactive) | GI50 [12]: > 100 µM (inactive) | GI50 [54]: > 100 µM (inactive) | GI50 [13]: 55.2 µM (inactive) | GI50 [14]: 38.5 µM (inactive) | GI50 [15]: > 100 µM (inactive) | GI50 [16]: 87.9 µM (inactive) | GI50 [17]: > 100 µM (inactive) | GI50 [55]: > 100 µM (inactive) | GI50 [18]: > 100 µM (inactive) | GI50 [19]: > 100 µM (inactive) | GI50 [20]: > 100 µM (inactive) | GI50 [56]: 45.2 µM (inactive) | GI50 [23]: > 100 µM (inactive) | GI50 [24]: > 100 µM (inactive) | GI50 [25]: > 100 µM (inactive) | GI50 [26]: > 100 µM (inactive) | GI50 [27]: 33.5 µM (inactive) | GI50 [29]: > 100 µM (inactive) | GI50 [30]: > 100 µM (inactive) | GI50 [57]: 94.6 µM (inactive) | GI50 [31]: > 100 µM (inactive) | GI50 [32]: > 100 µM (inactive) | GI50 [33]: > 100 µM (inactive) | GI50 [34]: > 100 µM (inactive) | GI50 [35]: > 100 µM (inactive) | GI50 [36]: 2.11 µM (inactive) | GI50 [58]: > 100 µM (inactive) | GI50 [38]: 79.3 µM (inactive) | GI50 [39]: 62.2 µM (inactive) | GI50 [40]: > 100 µM (inactive) | GI50 [41]: > 100 µM (inactive) | GI50 [42]: > 100 µM (inactive) | GI50 [43]: > 100 µM (inactive) | GI50 [44]: > 100 µM (inactive) | GI50 [45]: > 100 µM (inactive) | GI50 [46]: 51.4 µM | GI50 [47]: > 100 µM (inactive) | GI50 [48]: > 100 µM (inactive) | GI50 [49]: > 100 µM (inactive) | GI50 [50]: > 100 µM (inactive) | GI50 [51]: > 100 µM (inactive) | GI50 [52]: 73.6 µM (inactive) | GI50 [53]: 60 µM (inactive)
